One may read the EC50 as the concentration giving half of the maximal effect.

Consider 2 compounds from paper PMC4104029, “Mechanism of Action of Compound-13: An α1-Selective Small Molecule Activator of AMPK” (Chemistry & Biology, 2014).

The target of this experiment is T1, AMPK α2/α1 LOOP β1γ1 (Homo sapiens, UniProt P54619+P54646, A386E/A396G/C382H/D376E/DEL348-348/DEL355-359/G349D/G362L/I374V/K364R/K379R/L363T/L395Q/M352L/M370V/P360H/P361H/P372F/P383T/P392S/S377T/S394H/T389P/T390Q).
T1 construct: 6×His (N); made in house; host or cells: E. coli (tricistronic pET15-b construct)
Description: Chimeric AMPK complex activation assay. It counts as biochemical. As to conditions: complex expressed in E. coli; read-out: EC50, allosteric activation. From the text:
Figure 3 Regulatory Elements within the α-Linker Determine the Isoform Specificity of C2 (A) Diagram illustrating the domain organization of the AMPKα subunit with a global pairwise alignment of a section of the α-linker of human AMPKα1 (Q13131) and AMPKα2 (P54646). Regulatory elements in the α-linker are highlighted, including the α-hook as originally defined by [Xiao et al. (2011)] (pink) and the reassigned sequence (also known as α-RIM2) shaded in orange. The secondary structure for α1 is derived from PDB ID 2Y94. The table summarizes the sequences of the α1/α2 chimeras produced to examine the role of various structural elements in the activation of α2β1γ1 complexes by C2. (B–E) Human AMPKα1/α2 chimeras (defined in A) were generated as complexes with β1γ1 in E. coli. Purified active complexes were assayed for the activation of phosphotransferase activity by AMP and C2, as described in Figure 1. Results (line graphs) are expressed as the fold increase in activity relative to reactions performed in the absence of compound and represent the mean ± SD of three independent experiments. Complexes were also assayed for protection against dephosphorylation and inactivation by PP2Cα, as described in Figures 2C and 2D. Results (bar charts) are expressed as the mean (percentage of control) ± SD of three independent experiments. Representative blots of pT172 and total AMPKα are shown below the bar charts. TEXT PRINTED IN THE PICTURE: (B) C2: AMPK211 - α2/α1 CAT: EC50: ND | (B) AMP: AMPK211 - α2/α1 CAT: EC50: 1.3 ± 0.2 μM | (C) C2: AMPK211 - α2/α1 REG: EC50: 0.009 ± 0.0006 μM | (C) AMP: AMPK211 - α2/α1 REG: EC50: 3.1 ± 0.3 μM | (D) C2: AMPK211 - α2/α1 HOOK: EC50: ND | (D) AMP: AMPK211 - α2/α1 HOOK: EC50: 1.4 ± 0.2 μM | (E) C2: AMPK211 + α2/α1 LOOP: EC50: 0.013 ± 0.001 μM | (E) AMP: AMPK211 + α2/α1 LOOP: EC50: 2.7 ± 0.3 μM […]
AMPK phosphotransferase activity was assayed in reactions (50 μl) containing 50 mM HEPES, pH 7.4, 10 mM MgCl2, 0.1 mM EGTA, 1 mM DTT, 0.01% BRIJ-35, 100 μM [γ-^32P]ATP (∼250 CPM⋅pmol^−1) and 200 μM AMARA (AMARAASAAALARRR). Reactions were started by the addition of AMPK (5 mU), incubated for 20 min at 30°C and quenched by spotting onto P81 and immersion in 75 mM H3PO4. Washed filters were dried and [^32P] incorporation determined by Cherenkov counting. AMPK activity in cell extracts was determined by immunoprecipitation with AMPKα1 or AMPKα2 antibodies from 50 μg material, as previously described ([Hunter et al., 2011]). […]

T1 sequence (Q9Y478 2-270, stated change not applied): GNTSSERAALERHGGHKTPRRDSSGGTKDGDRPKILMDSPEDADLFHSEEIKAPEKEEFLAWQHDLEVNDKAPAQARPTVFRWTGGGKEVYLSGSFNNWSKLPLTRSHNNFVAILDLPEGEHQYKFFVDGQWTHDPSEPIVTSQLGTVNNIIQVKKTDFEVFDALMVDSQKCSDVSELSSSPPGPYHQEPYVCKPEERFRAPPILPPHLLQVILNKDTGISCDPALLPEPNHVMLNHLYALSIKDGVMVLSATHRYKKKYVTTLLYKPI
T1 sequence (P54646 other isoform, or with tags, fused parts or gaps with the stated changes): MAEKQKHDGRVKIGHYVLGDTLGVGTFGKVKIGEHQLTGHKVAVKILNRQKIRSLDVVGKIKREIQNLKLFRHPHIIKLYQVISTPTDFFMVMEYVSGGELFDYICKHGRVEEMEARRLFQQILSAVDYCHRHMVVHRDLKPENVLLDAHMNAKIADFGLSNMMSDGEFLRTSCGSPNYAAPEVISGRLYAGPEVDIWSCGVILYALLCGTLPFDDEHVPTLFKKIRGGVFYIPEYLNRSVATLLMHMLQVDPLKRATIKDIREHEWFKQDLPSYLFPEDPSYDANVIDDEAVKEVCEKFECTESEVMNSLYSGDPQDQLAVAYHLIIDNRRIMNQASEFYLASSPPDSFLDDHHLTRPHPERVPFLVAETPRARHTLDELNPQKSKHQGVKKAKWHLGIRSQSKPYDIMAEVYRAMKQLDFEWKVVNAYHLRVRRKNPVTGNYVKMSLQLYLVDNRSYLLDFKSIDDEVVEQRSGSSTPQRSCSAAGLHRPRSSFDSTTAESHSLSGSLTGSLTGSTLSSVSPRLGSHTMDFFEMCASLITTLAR
T1 sequence (P54619 whole entry, stated change not applied): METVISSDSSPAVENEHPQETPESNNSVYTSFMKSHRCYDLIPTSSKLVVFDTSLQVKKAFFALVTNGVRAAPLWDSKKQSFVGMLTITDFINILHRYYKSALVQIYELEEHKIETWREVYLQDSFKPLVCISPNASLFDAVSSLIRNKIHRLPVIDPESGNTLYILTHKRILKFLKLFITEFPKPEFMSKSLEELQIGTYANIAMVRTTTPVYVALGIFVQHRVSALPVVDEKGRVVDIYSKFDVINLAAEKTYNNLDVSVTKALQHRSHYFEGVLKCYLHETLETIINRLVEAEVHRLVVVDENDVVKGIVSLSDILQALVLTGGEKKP

Take `Nc1ncnc2c1ncn2[C@@H]1O[C@H](COP(=O)(O)O)[C@@H](O)[C@H]1O` [AMP, reference compound]: the EC50 came to 2700 ± 300 nM. As to `O=P(O)(O)c1ccc(-c2cc(O)on2)o1` [Compound C2, 5-(5-hydroxyl-isoxazol-3-yl)-furan-2-phosphonic acid], the 50% effective concentration (EC50) was determined as 13 ± 1 nM.
